Here are results for one substance from patent US11903999B2, “Combination of AS1411 and SAPC-DOPS for the treatment of glioblastoma multiforme” (University of Cincinnati, priority 2017, dated 2024).

pIC50: −log10 of the molar value.

Data set [1] relates to Caspase-3 in U87-MG cells. The data set is described as follows: Caspase-3 levels as a measure of apoptosis (EnzCheck Caspase-3 Assay Kit). Type of data set: cell-based. The following applies: 15 μM AS1411 for 72 hrs vs 100 μM TMZ for 48 hrs. How it is done: Caspase activity was measured with a […]. Caspase levels were normalized to total cellular protein with BCA protein assay. Error bars show mean +/−SD.
U87-MG cells were seeded onto standard 60 mm cell culture dishes at 50% confluency. After 24 hrs, 15 μM of AS1411 in DMEM and 100 μM of temozolomide (TMZ) in DMEM were added to each dish. Cells were harvested at 72 hrs and 48 hrs respectively and analyzed using the EnzCheck Caspase-3 Assay Kit from Molecular Probes utilizing the Z-DEVD-AMC substrate (incubated for 30 minutes). Fluorescence excitation/emission: 340/440 nm) was measured with a standard fluorometer.

Data set [2] has as its system U87-MG cells. The data set is described as follows: Cell surface PS (Annexin V-FITC) and propidium iodide by flow cytometry. The class given is cell-based. Particulars: 6 μM AS1411. The procedure: FIG. 3. […] Error bars show mean +/−SD with **p<0.02 by Student's t-test when compared to control (untreated) cells.
U87-MG cells were seeded onto standard 60 mm cell culture dishes at ˜50% confluency. After 24 hrs, 6 μM of AS1411 in DMEM was added to each dish at 24, 48, and 72 hour time points. Cells were then stained with Annexin V-FITC using a standard staining protocol and evaluated for surface PS levels using flow cytometry.

In data set [3] the test system is U87-MG cells. Particulars: cited from earlier work.
The test system of a further data set is non-GBM tumor cell lines. The following applies: cited from earlier work.
Data set [4] relates to U87-MG cells. The data set is described as follows: Methuosis-like vacuolization by microscopy. Type of data set: cell-based. The following applies: 15 μM AS1411 for 72 hrs. The procedure:
FIG. 5. A) AS1411 induces methuosis-like vacuolization in U87-MG Cells, untreated U87-MG cells; B) […] cells treated with 10 μM MIPP for 24 hrs; C) U87-MG cells treated with 15 μM AS1411 for 72 hrs. D) U87-MG cells treated with 15 μM AS1411 for 192 hrs. E) Quantification of number of cells with >5 vacuoles.
U87-MG cells were grown to approximately 50% confluency in standard flat bottom 6 well cell culture plates. The cells were then treated with either 10 μM MIPP (a compound previously shown to induce methuosis) or 15 μM AS1411 for 72 hrs. Photos were taken comparing the two treatment wells with untreated control cells, using a microscope with camera.

For orientation: pIC50 means −log10 of the IC50, conventionally taken in molar units. For the substance “5′-d(GGTGGTGGTGGTTGTGGTGGTGGTGG)-3′ [AS1411]”, the caspase activity result in data set [1] is “does not increase caspase activity as much as the apoptotic drug TMZ”. Also, the “propidium iodide (PI) positive (dead) cells” value in the data set on U87-MG cells [2] is “without increasing PI”. The “surface PS (Annexin V-FITC)” value with U87-MG cells [2] (24, 48, 72 hrs) is “increases surface PS”. For the same substance, the pIC50 in the data set with U87-MG cells [3] was 5.00; in the data set on non-GBM tumor cell lines, 6.00. Besides, in the data set with U87-MG cells [4], the “morphologic changes, vacuolization” value is “induces morphologic changes including vacuolization”.
